Where a name gives a salt, the structure may show the parent alone.
Experiments:
Format in all cases: cell-based
[1] = test system: Bacillus cereus; assay: Substrate hydrolysis on Columbia agar; settings: Bacillus cereus NCTC; 300 mg/l; 18 hours
[2] = test system: K. oxytoca; assay: Substrate hydrolysis on Columbia agar; settings: 300 mg/l, 18 hours
[3] = test system: Listeria innocua; assay: Substrate hydrolysis on Columbia agar; settings: Listeria innocua PHLS wild; 300 mg/l; 18 hours
[4] = test system: A. calcoaceticus; assay: Substrate hydrolysis on Columbia agar; settings: A. calcoaceticus ATCC 7844; 300 mg/l; 18 hours
[5] = test system: Hafnia alvei; assay: Substrate hydrolysis on Columbia agar; settings: 300 mg/l, 18 hours
[6] = test system: Staphylococcus haemolyticus; assay: Substrate hydrolysis on Columbia agar; settings: 300 mg/l, 18 hours
[7] = test system: Vibrio furnissii; assay: Substrate hydrolysis on Columbia agar; settings: Vibrio furnissii NCTC 11218; 300 mg/l; 18 hours
[8] = test system: Haemolytic streptococcus A; assay: Substrate hydrolysis on Columbia agar; settings: 300 mg/l, 18 hours
[9] = test system: Streptococcus vestibularis; assay: Substrate hydrolysis on Columbia agar; settings: Streptococcus vestibularis NCTC 12166; 300 mg/l; 18 hours
[10] = test system: Streptococcus gordonii; assay: Substrate hydrolysis on Columbia agar; settings: Streptococcus gordonii NCTC 7865; 300 mg/l; 18 hours
[11] = test system: Enterococcus raffinosis; assay: Substrate hydrolysis on Columbia agar; settings: Enterococcus raffinosis NCTC 13192; 300 mg/l; 18 hours
[12] = test system: Gram positive bacteria; assay: Substrate hydrolysis on Columbia agar, summary of screen; settings: for Gram positive bacteria tested that hydrolysed the substrate: of 74 Gram positive bacteria tested, 300 mg/l, 18 hours
[13] = test system: Vibrio vulnificus; assay: Substrate hydrolysis on Columbia agar; settings: 300 mg/l, 18 hours
[14] = test system: Providencia stuartii; assay: Substrate hydrolysis on Columbia agar; settings: 300 mg/l, 18 hours
[15] = test system: P. penneri; assay: Substrate hydrolysis on Columbia agar; settings: P. penneri PPE 1; 300 mg/l; 18 hours
[16] = test system: Enterococcus durans; assay: Substrate hydrolysis on Columbia agar; settings: Enterococcus durans NCTC 8307; 300 mg/l; 18 hours
[17] = test system: Salmonella hadar; assay: Substrate hydrolysis on Columbia agar; settings: Salmonella hadar SAX 57; 300 mg/l; 18 hours
[18] = test system: Shigella dysenteriae; assay: Substrate hydrolysis on Columbia agar; settings: 300 mg/l, 18 hours
[19] = test system: A. lwoffii; assay: Substrate hydrolysis on Columbia agar; settings: A. lwoffii ATCC 15309; 300 mg/l; 18 hours
[20] = test system: Haemolytic streptococcus C; assay: Substrate hydrolysis on Columbia agar; settings: 300 mg/l, 18 hours
[21] = test system: Vibrio hollisae; assay: Substrate hydrolysis on Columbia agar; settings: Vibrio hollisae NCTC 11640; 300 mg/l; 18 hours
[22] = test system: Staphylococcus aureus; assay: Substrate hydrolysis on Columbia agar; settings: 300 mg/l, 18 hours
[23] = test system: Haemolytic streptococcus G; assay: Substrate hydrolysis on Columbia agar; settings: 300 mg/l, 18 hours
[24] = test system: Vibrio alcaligenes; assay: Substrate hydrolysis on Columbia agar; settings: Vibrio alcaligenes NCTC 12160; 300 mg/l; 18 hours
[25] = test system: Vibrio fluvialis; assay: Substrate hydrolysis on Columbia agar; parameters: key to the marks not given beside the values; settings: Vibrio fluvialis NCTC 11327; 300 mg/l; 18 hours
[26] = test system: Haemolytic streptococcus B; assay: Substrate hydrolysis on Columbia agar; settings: 300 mg/l, 18 hours
[27] = test system: Aeromonas sobria; assay: Substrate hydrolysis on Columbia agar; settings: Aeromonas sobria NCTC 11215; 300 mg/l; 18 hours
[28] = test system: Aeromonas caviae; assay: Substrate hydrolysis on Columbia agar; parameters: key to the marks not given beside the values; settings: Aeromonas caviae NCTC 10852; 300 mg/l; 18 hours
[29] = test system: E. coli; assay: Substrate hydrolysis on Columbia agar; settings: 300 mg/l, 18 hours
[30] = test system: C. freundii; assay: Substrate hydrolysis on Columbia agar; settings: 300 mg/l, 18 hours
[31] = Staphylococcus haemolyticus RB 66
[32] = Staphylococcus haemolyticus RB 67
[33] = Staphylococcus haemolyticus RB 68
[34] = Staphylococcus haemolyticus RB 69
[35] = Staphylococcus haemolyticus RB 70
[36] = Shigella dysenteriae (type 2) NCTC 9952
[37] = Shigella dysenteriae (type 3) NCTC 9720
[38] = Shigella dysenteriae (type 4) NCTC 9759
[39] = Haemolytic streptococcus C 67736
[40] = Haemolytic streptococcus C 68350

## 3′,4′-dihydroxyflavone-4′-β-D-glucopyranoside sodium salt [DHF-glucoside]
[1]
  Hydrolysis by Gram positive organisms: +
[2]; K. oxytoca KOX 1
  Hydrolysis by Gram negative bacteria: +
[2]; K. oxytoca KOX 2
  Hydrolysis by Gram negative bacteria: +
[3]
  Hydrolysis by Gram positive organisms: ++
[4]
  Hydrolysis by Gram negative bacteria: −
[5]; Hafnia alvei HAL 2
  Hydrolysis by Gram negative bacteria: −
[5]; Hafnia alvei NCTC 8105
  Hydrolysis by Gram negative bacteria: −
[6]; [31]
  Hydrolysis by Gram positive organisms: −
[6]; [32]
  Hydrolysis by Gram positive organisms: −
[6]; [33]
  Hydrolysis by Gram positive organisms: −
[6]; [34]
  Hydrolysis by Gram positive organisms: −
[6]; [35]
  Hydrolysis by Gram positive organisms: −
[7]
  Hydrolysis by Gram negative bacteria: −
[8]; Haemolytic streptococcus A 1
  Hydrolysis by Gram positive organisms: −
[8]; Haemolytic streptococcus A 2
  Hydrolysis by Gram positive organisms: −
[8]; Haemolytic streptococcus A 3
  Hydrolysis by Gram positive organisms: −
[9]
  Hydrolysis by Gram positive organisms: −
[10]
  Hydrolysis by Gram positive organisms: −
[11]
  Hydrolysis by Gram positive organisms: ++
[12]; Strains of Listeria and enterococci
  colony colour and diffusion: intense black colonies with no diffusion of the black chelate
[12]
  Gram positive bacteria tested that hydrolysed the substrate: 22.5%
[13]; Vibrio vulnificus NCTC 11066
  Hydrolysis by Gram negative bacteria: +
[13]; Vibrio vulnificus NCTC 11067
  Hydrolysis by Gram negative bacteria: +
[14]; Providencia stuartii PST 1
  Hydrolysis by Gram negative bacteria: +
[14]; Providencia stuartii PST 2
  Hydrolysis by Gram negative bacteria: +
[15]
  Hydrolysis by Gram negative bacteria: −
[16]
  Hydrolysis by Gram positive organisms: ++
[17]
  Hydrolysis by Gram negative bacteria: −
[18]; [36]
  Hydrolysis by Gram negative bacteria: −
[18]; [37]
  Hydrolysis by Gram negative bacteria: −
[18]; [38]
  Hydrolysis by Gram negative bacteria: −
[19]
  Hydrolysis by Gram negative bacteria: −
[20]; Haemolytic streptococcus C 1
  Hydrolysis by Gram positive organisms: −
[20]; [39]
  Hydrolysis by Gram positive organisms: −
[20]; [40]
  Hydrolysis by Gram positive organisms: −
[21]
  Hydrolysis by Gram negative bacteria: −
[22]; Staphylococcus aureus 1
  Hydrolysis by Gram positive organisms: −
[22]; Staphylococcus aureus 2
  Hydrolysis by Gram positive organisms: −
[22]; Staphylococcus aureus 3
  Hydrolysis by Gram positive organisms: −
[22]; Staphylococcus aureus 4
  Hydrolysis by Gram positive organisms: −
[22]; Staphylococcus aureus 5
  Hydrolysis by Gram positive organisms: −
[23]; Haemolytic streptococcus G 1
  Hydrolysis by Gram positive organisms: −
[23]; Haemolytic streptococcus G 2
  Hydrolysis by Gram positive organisms: −
[23]; Haemolytic streptococcus G 3
  Hydrolysis by Gram positive organisms: −
[24]
  Hydrolysis by Gram negative bacteria: −
[25]
  Hydrolysis by Gram negative bacteria: ++
[26]; Haemolytic streptococcus B 1
  Hydrolysis by Gram positive organisms: −
[26]; Haemolytic streptococcus B 2
  Hydrolysis by Gram positive organisms: −
[26]; Haemolytic streptococcus B 3
  Hydrolysis by Gram positive organisms: −
[27]
  Hydrolysis by Gram negative bacteria: −
[28]
  Hydrolysis by Gram negative bacteria: ++
[29]; E. coli ECO 2
  Hydrolysis by Gram negative bacteria: −
[29]; E. coli ECO 3
  Hydrolysis by Gram negative bacteria: −
[29]; E. coli ECO 4
  Hydrolysis by Gram negative bacteria: −
[29]; E. coli ECO 5
  Hydrolysis by Gram negative bacteria: −
[29]; E. coli ECO 6
  Hydrolysis by Gram negative bacteria: −
[29]; E. coli ECO 7
  Hydrolysis by Gram negative bacteria: −
[29]; E. coli ECO 8
  Hydrolysis by Gram negative bacteria: −
[29]; E. coli ECO 9
  Hydrolysis by Gram negative bacteria: −
[29]; E. coli ECO 10
  Hydrolysis by Gram negative bacteria: −
[29]; E. coli ECO 11
  Hydrolysis by Gram negative bacteria: −
[29]; E. coli ECO 12
  Hydrolysis by Gram negative bacteria: −
[29]; E. coli NCTC 10418
  Hydrolysis by Gram negative bacteria: −
[30]; C. freundii CFR 1
  Hydrolysis by Gram negative bacteria: +
[30]; C. freundii CFR 2
  Hydrolysis by Gram negative bacteria: −
[30]; C. freundii CFR 3
  Hydrolysis by Gram negative bacteria: −
[30]; C. freundii CFR 4
  Hydrolysis by Gram negative bacteria: +
[30]; C. freundii NCTC 9750
  Hydrolysis by Gram negative bacteria: +

## O=c1cc(-c2ccc(OC3OC(CO)C(O)C3O)c(O)c2)oc2ccccc12 [DHF-riboside, 3′,4′-dihydroxyflavone-4′-β-D-ribofuranoside Sodium Salt]
[1]
  Hydrolysis by Gram positive organisms: −
[2]; K. oxytoca KOX 1
  Hydrolysis by Gram negative bacteria: ++
[2]; K. oxytoca KOX 2
  Hydrolysis by Gram negative bacteria: ++
[3]
  Hydrolysis by Gram positive organisms: −
[4]
  Hydrolysis by Gram negative bacteria: −
[5]; Hafnia alvei HAL 2
  Hydrolysis by Gram negative bacteria: ++
[5]; Hafnia alvei NCTC 8105
  Hydrolysis by Gram negative bacteria: ++
[6]; [31]
  Hydrolysis by Gram positive organisms: +
[6]; [32]
  Hydrolysis by Gram positive organisms: +
[6]; [33]
  Hydrolysis by Gram positive organisms: +
[6]; [34]
  Hydrolysis by Gram positive organisms: +
[6]; [35]
  Hydrolysis by Gram positive organisms: +
[7]
  Hydrolysis by Gram negative bacteria: −
[8]; Haemolytic streptococcus A 1
  Hydrolysis by Gram positive organisms: −
[8]; Haemolytic streptococcus A 2
  Hydrolysis by Gram positive organisms: −
[8]; Haemolytic streptococcus A 3
  Hydrolysis by Gram positive organisms: −
[9]
  Hydrolysis by Gram positive organisms: −
[10]
  Hydrolysis by Gram positive organisms: −
[11]
  Hydrolysis by Gram positive organisms: +
[12]
  Gram positive bacteria tested that hydrolysed the substrate: 30.8%
[13]; Vibrio vulnificus NCTC 11066
  Hydrolysis by Gram negative bacteria: −
[13]; Vibrio vulnificus NCTC 11067
  Hydrolysis by Gram negative bacteria: −
[14]; Providencia stuartii PST 1
  Hydrolysis by Gram negative bacteria: +
[14]; Providencia stuartii PST 2
  Hydrolysis by Gram negative bacteria: +
[15]
  Hydrolysis by Gram negative bacteria: −
[16]
  Hydrolysis by Gram positive organisms: −
[17]
  Hydrolysis by Gram negative bacteria: ++
[18]; [36]
  Hydrolysis by Gram negative bacteria: ++
[18]; [37]
  Hydrolysis by Gram negative bacteria: ++
[18]; [38]
  Hydrolysis by Gram negative bacteria: ++
[19]
  Hydrolysis by Gram negative bacteria: −
[20]; Haemolytic streptococcus C 1
  Hydrolysis by Gram positive organisms: −
[20]; [39]
  Hydrolysis by Gram positive organisms: −
[20]; [40]
  Hydrolysis by Gram positive organisms: −
[21]
  Hydrolysis by Gram negative bacteria: −
[22]; Staphylococcus aureus 1
  Hydrolysis by Gram positive organisms: ++
[22]; Staphylococcus aureus 2
  Hydrolysis by Gram positive organisms: ++
[22]; Staphylococcus aureus 3
  Hydrolysis by Gram positive organisms: ++
[22]; Staphylococcus aureus 4
  Hydrolysis by Gram positive organisms: ++
[22]; Staphylococcus aureus 5
  Hydrolysis by Gram positive organisms: ++
[23]; Haemolytic streptococcus G 1
  Hydrolysis by Gram positive organisms: −
[23]; Haemolytic streptococcus G 2
  Hydrolysis by Gram positive organisms: −
[23]; Haemolytic streptococcus G 3
  Hydrolysis by Gram positive organisms: +
[24]
  Hydrolysis by Gram negative bacteria: −
[25]
  Hydrolysis by Gram negative bacteria: ++
[26]; Haemolytic streptococcus B 1
  Hydrolysis by Gram positive organisms: −
[26]; Haemolytic streptococcus B 2
  Hydrolysis by Gram positive organisms: −
[26]; Haemolytic streptococcus B 3
  Hydrolysis by Gram positive organisms: −
[27]
  Hydrolysis by Gram negative bacteria: 0
[28]
  Hydrolysis by Gram negative bacteria: ++
[29]; E. coli ECO 2
  Hydrolysis by Gram negative bacteria: ++
[29]; E. coli ECO 3
  Hydrolysis by Gram negative bacteria: ++
[29]; E. coli ECO 4
  Hydrolysis by Gram negative bacteria: ++
[29]; E. coli ECO 5
  Hydrolysis by Gram negative bacteria: ++
[29]; E. coli ECO 6
  Hydrolysis by Gram negative bacteria: ++
[29]; E. coli ECO 7
  Hydrolysis by Gram negative bacteria: ++
[29]; E. coli ECO 8
  Hydrolysis by Gram negative bacteria: ++
[29]; E. coli ECO 9
  Hydrolysis by Gram negative bacteria: ++
[29]; E. coli ECO 10
  Hydrolysis by Gram negative bacteria: ++
[29]; E. coli ECO 11
  Hydrolysis by Gram negative bacteria: ++
[29]; E. coli ECO 12
  Hydrolysis by Gram negative bacteria: ++
[29]; E. coli NCTC 10418
  Hydrolysis by Gram negative bacteria: ++
[30]; C. freundii CFR 1
  Hydrolysis by Gram negative bacteria: ++
[30]; C. freundii CFR 2
  Hydrolysis by Gram negative bacteria: ++
[30]; C. freundii CFR 3
  Hydrolysis by Gram negative bacteria: ++
[30]; C. freundii CFR 4
  Hydrolysis by Gram negative bacteria: ++
[30]; C. freundii NCTC 9750
  Hydrolysis by Gram negative bacteria: ++

Reference: US7531646B2, “β-D-ribosidase activity indicators with a chromogenic substrate” (priority 2001, dated 2009)
